Assay results reported in patent US12410133B2, “Crystalline (r)-5-carbamoylpyridin-3-yl-2-methyl-4-(3-(trifluoromethoxy)benzyl)piperazine-1-carboxylate, compositions and methods of use thereof” (Celgene Corporation, priority 2018, dated 2025).
≈ marks a conversion by molar mass, not a printed value. Marks after values point to notes of the source that are not given here.

Key:
Type in all cases: physicochemical
[1] = Form A solubility study in FaSSIF-v2 and FeSSIF-v2 at 37° C.; conditions: for solubility at 2 h / solubility at 24 h / Final Form: 37° C.; for Final Form: residual solid by XRPD
Method: Solubility was evaluated at 2 hr and 24 hr for Form A in FaSSIF-v2 and FeSSIF-v2 at 37° C. Approximately 40 mg of Form A sample was added in 2.0 mL of corresponding bio-medium to form a suspension, followed by shaking at 500 rpm at 37° C. After 2 hr and 24 hr, the supernatants were isolated by centrifugation (7000 rpm for 5 min) followed by filtration through […] PTFE membrane and were tested by HPLC concentration and pH. The residual solids were characterized by XRPD.

[2] = Solution stability test of Form A in physiologically relevant media at 37° C.; set-up: unit not given here
Method: A solution stability test of Form A was performed to assess substantial degradation of (R)-5-carbamoylpyridin-3-yl-2-methyl-4-(3-(trifluoromethoxy)benzyl)piperazine-1-carboxylate in physiologically relevant media. A solution of (R)-5-carbamoylpyridin-3-yl-2-methyl-4-(3-(trifluoromethoxy)benzyl)piperazine-1-carboxylate (1 mg/mL) was prepared in acetonitrile/water (50/50 v/v). Test medium (1990 μL) was added to a vial. Test media evaluated included buffers pH 1-8, simulated gastric fluid (SGF), fasted state simulated intestinal fluid (FaSSIF), and fed state simulated intestinal fluid (FeSSIF). Stock solution (10 μL) was added to the vial containing the medium. This mixture was stirred to mix well and transferred to a HPLC vial, which was placed in the autosampler maintained at 37° C. The vial was injected repeatedly every 4 hr for 24 hr.

[3] = Accelerated solid-state stability study of Form A
Method: Solid-state stability evaluation (accelerated conditions) was performed on Form A under conditions of 25° C./60% RH and 40° C./75% RH. The detailed procedure utilized for stability evaluation is listed below:
1) weigh approximately 30 mg of Form A sample into each 3-mL vial;
2) cover the vial with Parafilm® and poke 15 holes on the Parafilm® with a needle;
3) put the vial in a stability chamber of 25° C./60% RH or 40° C./75% RH; and
4) sample for XRPD, TGA, DSC, HPLC purity and assay tests after 2, 4 and 6 weeks and 3 months.

## C[C@@H]1CN(Cc2cccc(OC(F)(F)F)c2)CCN1C(=O)Oc1cncc(C(N)=O)c1 [Form A, (R)-5-carbamoylpyridin-3-yl-2-methyl-4-(3-(trifluoromethoxy)benzyl)piperazine-1-carboxylate]
[1]; FaSSIF-v2, thermodynamic from solid, FaSSIF (pH 6.5), 2 hr, final pH 6.5
  solubility at 2 h: 63 µg/mL (≈ 144 µM)
[1]; FaSSIF-v2, thermodynamic from solid, FaSSIF (pH 6.5), 24 hr, final pH 6.6
  solubility at 24 h: 63 µg/mL (≈ 144 µM)
[1]; FaSSIF-v2 and FeSSIF-v2, 37° C., 2 hr and 24 hr
  Form change after solubility evaluation (XRPD patterns): no form change was observed
[1]; FeSSIF-v2, thermodynamic from solid, FeSSIF (pH 5.8), 2 hr, final pH 5.9
  solubility at 2 h: 1000 µg/mL (≈ 2280 µM)
[1]; FeSSIF-v2, thermodynamic from solid, FeSSIF (pH 5.8), 24 hr, final pH 6.0
  solubility at 24 h: 1100 µg/mL (≈ 2510 µM)
[1]; FaSSIF (pH 6.5), 2 hr
  Final Form: Form A
[1]; FaSSIF (pH 6.5), 24 hr
  Final Form: Form A
[1]; FeSSIF (pH 5.8), 2 hr
  Final Form: Form A
[1]; FeSSIF (pH 5.8), 24 hr
  Final Form: Form A
[2]; FaSSIF, 37° C., 0 hr
  Solution chemical stability data: 100.0
[2]; FaSSIF, 37° C., 4 hr
  Solution chemical stability data: 100.6
[2]; FaSSIF, 37° C., 8 hr
  Solution chemical stability data: 100.2
[2]; FaSSIF, 37° C., 12 hr
  Solution chemical stability data: 100.5
[2]; FaSSIF, 37° C., 16 hr
  Solution chemical stability data: 100.3
[2]; FaSSIF, 37° C., 20 hr
  Solution chemical stability data: 100.0
[2]; FaSSIF, 37° C., 24 hr
  Solution chemical stability data: 100.0
[2]; FeSSIF, 37° C., 0 hr
  Solution chemical stability data: 100.0
[2]; FeSSIF, 37° C., 4 hr
  Solution chemical stability data: 99.6
[2]; FeSSIF, 37° C., 8 hr
  Solution chemical stability data: 100.2
[2]; FeSSIF, 37° C., 12 hr
  Solution chemical stability data: 99.7
[2]; FeSSIF, 37° C., 16 hr
  Solution chemical stability data: 99.6
[2]; FeSSIF, 37° C., 20 hr
  Solution chemical stability data: 99.8
[2]; FeSSIF, 37° C., 24 hr
  Solution chemical stability data: 99.7
[2]; SGF, 37° C., 0 hr
  Solution chemical stability data: 100.0
[2]; SGF, 37° C., 4 hr
  Solution chemical stability data: 100.2
[2]; SGF, 37° C., 8 hr
  Solution chemical stability data: 100.1
[2]; SGF, 37° C., 12 hr
  Solution chemical stability data: 99.2
[2]; SGF, 37° C., 16 hr
  Solution chemical stability data: 99.7
[2]; SGF, 37° C., 20 hr
  Solution chemical stability data: 100.4
[2]; SGF, 37° C., 24 hr
  Solution chemical stability data: 99.6
[2]; pH = 1, 37° C., 0 hr
  Solution chemical stability data: 100.0
[2]; pH = 1, 37° C., 4 hr
  Solution chemical stability data: 99.6
[2]; pH = 1, 37° C., 8 hr
  Solution chemical stability data: 100.3
[2]; pH = 1, 37° C., 12 hr
  Solution chemical stability data: 100.3
[2]; pH = 1, 37° C., 16 hr
  Solution chemical stability data: 99.9
[2]; pH = 1, 37° C., 20 hr
  Solution chemical stability data: 101.9
[2]; pH = 1, 37° C., 24 hr
  Solution chemical stability data: 100.5
[2]; pH = 3, 37° C., 0 hr
  Solution chemical stability data: 100.0
[2]; pH = 3, 37° C., 4 hr
  Solution chemical stability data: 99.8
[2]; pH = 3, 37° C., 8 hr
  Solution chemical stability data: 99.8
[2]; pH = 3, 37° C., 12 hr
  Solution chemical stability data: 98.5
[2]; pH = 3, 37° C., 16 hr
  Solution chemical stability data: 99.3
[2]; pH = 3, 37° C., 20 hr
  Solution chemical stability data: 99.6
[2]; pH = 3, 37° C., 24 hr
  Solution chemical stability data: 99.5
[2]; pH = 5.0, 37° C., 0 hr
  Solution chemical stability data: 100.0
[2]; pH = 5.0, 37° C., 4 hr
  Solution chemical stability data: 100.9
[2]; pH = 5.0, 37° C., 8 hr
  Solution chemical stability data: 101.7
[2]; pH = 5.0, 37° C., 12 hr
  Solution chemical stability data: 99.9
[2]; pH = 5.0, 37° C., 16 hr
  Solution chemical stability data: 100.7
[2]; pH = 5.0, 37° C., 20 hr
  Solution chemical stability data: 99.9
[2]; pH = 5.0, 37° C., 24 hr
  Solution chemical stability data: 99.6
[2]; pH = 6.8, 37° C., 0 hr
  Solution chemical stability data: 100.0
[2]; pH = 6.8, 37° C., 4 hr
  Solution chemical stability data: 100.2
[2]; pH = 6.8, 37° C., 8 hr
  Solution chemical stability data: 100.8
[2]; pH = 6.8, 37° C., 12 hr
  Solution chemical stability data: 100.1
[2]; pH = 6.8, 37° C., 16 hr
  Solution chemical stability data: 100.0
[2]; pH = 6.8, 37° C., 20 hr
  Solution chemical stability data: 99.6
[2]; pH = 6.8, 37° C., 24 hr
  Solution chemical stability data: 99.0
[2]; pH = 8.0, 37° C., 0 hr
  Solution chemical stability data: 100.0
[2]; pH = 8.0, 37° C., 4 hr
  Solution chemical stability data: 101.3
[2]; pH = 8.0, 37° C., 8 hr
  Solution chemical stability data: 100.5
[2]; pH = 8.0, 37° C., 12 hr
  Solution chemical stability data: 99.7
[2]; pH = 8.0, 37° C., 16 hr
  Solution chemical stability data: 100.1
[2]; pH = 8.0, 37° C., 20 hr
  Solution chemical stability data: 98.7
[2]; pH = 8.0, 37° C., 24 hr
  Solution chemical stability data: 99.4
[3]; 2 weeks, 25° C./60% RH
  API (RRT 1.00): 99.84 % Area
  Assay vs. 5° C. control: 101.2%
  Crystal form: Form A
  HPLC Purity: 99.84 area %
  Imp.1 (RRT 0.81): 0.07 % Area
  Imp.2 (RRT 1.04): — (—: <0.05.)
  Imp.3 (RRT 1.74): 0.09 % Area
[3]; 2 weeks, 40° C./75% RH
  API (RRT 1.00): 99.78 % Area
  Assay vs. 5° C. control: 98.1%
  Crystal form: Form A
  HPLC Purity: 99.78 area %
  Imp.1 (RRT 0.81): 0.08 % Area
  Imp.2 (RRT 1.04): 0.07 % Area
  Imp.3 (RRT 1.74): 0.07 % Area
[3]; 3 months, 25° C./60% RH
  API (RRT 1.00): 99.86 % Area
  Assay vs. 5° C. control: 97.3%
  Chiral Purity: 100
  Crystal form: Form A
  HPLC Purity: 99.86 area %
  Imp.1 (RRT 0.81): 0.09 % Area
  Imp.3 (RRT 1.74): 0.05 % Area
[3]; 3 months, 40° C./75% RH
  API (RRT 1.00): 99.86 % Area
  Assay vs. 5° C. control: 96.9%
  Chiral Purity: 100
  Crystal form: Form A
  HPLC Purity: 99.86 area %
  Imp.1 (RRT 0.81): 0.09 % Area
  Imp.3 (RRT 1.74): 0.05 % Area
[3]; 4 weeks, 25° C./60% RH
  API (RRT 1.00): 99.86 % Area
  Assay vs. 5° C. control: 101.4%
  Crystal form: Form A
  HPLC Purity: 99.86 area %
  Imp.1 (RRT 0.81): 0.07 % Area
  Imp.2 (RRT 1.04): — (—: <0.05.)
  Imp.3 (RRT 1.74): 0.07 % Area
[3]; 4 weeks, 40° C./75% RH
  API (RRT 1.00): 99.86 % Area
  Assay vs. 5° C. control: 101.3%
  Crystal form: Form A
  HPLC Purity: 99.86 area %
  Imp.1 (RRT 0.81): 0.07 % Area
  Imp.2 (RRT 1.04): — (—: <0.05.)
  Imp.3 (RRT 1.74): 0.07 % Area
[3]; 6 weeks, 25° C./60% RH
  API (RRT 1.00): 99.86 % Area
  Assay vs. 5° C. control: 99.7%
  Crystal form: Form A
  HPLC Purity: 99.86 area %
  Imp.1 (RRT 0.81): 0.07 % Area
  Imp.2 (RRT 1.04): — (—: <0.05.)
  Imp.3 (RRT 1.74): 0.07 % Area
[3]; 6 weeks, 40° C./75% RH
  API (RRT 1.00): 99.86 % Area
  Assay vs. 5° C. control: 99.2%
  Crystal form: Form A
  HPLC Purity: 99.86 area %
  Imp.1 (RRT 0.81): 0.07 % Area
  Imp.2 (RRT 1.04): — (—: <0.05.)
  Imp.3 (RRT 1.74): 0.07 % Area
[3]; 25° C./60% RH and 40° C./75% RH for 3 months
  Physical and chemical stability under accelerated conditions: good physical and chemical stability
[3]; Initial
  API (RRT 1.00): 99.86 % Area
  Crystal form: Form A
  HPLC Purity: 99.86 area %
  Imp.1 (RRT 0.81): 0.09 % Area
  Imp.2 (RRT 1.04): — (—: <0.05.)
  Imp.3 (RRT 1.74): 0.05 % Area
[3]; Initial, starting material after stored at −20° C. for about 3 months
  Chiral Purity: 100*
[3]; after 3 months at both conditions (25° C./60% RH and 40° C./75% RH)
  Form change or HPLC purity decrease: no significant form change or HPLC purity decrease was observed
